We go through 36 molecules from ChEMBL document CHEMBL5291721, “A preclinical secondary pharmacology resource illuminates target-adverse drug reaction associations of marketed drugs” (Nat Commun, 2023).

The target in assay [1] is 5-hydroxytryptamine receptor 2A (Homo sapiens, UniProt P28223). The assay is classed as functional, cell-based.
The target in a further assay is Cannabinoid receptor 1 (Homo sapiens, UniProt P21554).
In assay [2] the target is Beta-2 adrenergic receptor (Homo sapiens, UniProt P07550). The format is functional, cell-based.
A further assay has as its target Mu-type opioid receptor (Homo sapiens, UniProt P35372). Kind of assay: biochemical. The assay is classed as functional.
In assay [3] the target is Voltage-dependent N-type calcium channel subunit alpha-1B (Rattus norvegicus, UniProt Q02294). The format is functional.
Further: assay procedure not described here.

Beta-2 adrenergic receptor, sequence (P07550 whole entry): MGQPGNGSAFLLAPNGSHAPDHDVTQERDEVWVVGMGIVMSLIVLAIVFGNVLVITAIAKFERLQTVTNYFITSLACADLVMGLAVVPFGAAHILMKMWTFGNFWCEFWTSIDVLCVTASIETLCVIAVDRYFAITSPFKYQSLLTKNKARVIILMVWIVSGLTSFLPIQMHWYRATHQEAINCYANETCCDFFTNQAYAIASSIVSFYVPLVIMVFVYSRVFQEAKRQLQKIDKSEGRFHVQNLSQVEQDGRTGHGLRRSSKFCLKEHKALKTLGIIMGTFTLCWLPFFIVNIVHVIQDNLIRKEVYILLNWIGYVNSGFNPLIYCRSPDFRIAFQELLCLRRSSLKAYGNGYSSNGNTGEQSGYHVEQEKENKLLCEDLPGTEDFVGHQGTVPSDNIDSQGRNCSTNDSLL
Cannabinoid receptor 1, sequence (P21554 whole entry): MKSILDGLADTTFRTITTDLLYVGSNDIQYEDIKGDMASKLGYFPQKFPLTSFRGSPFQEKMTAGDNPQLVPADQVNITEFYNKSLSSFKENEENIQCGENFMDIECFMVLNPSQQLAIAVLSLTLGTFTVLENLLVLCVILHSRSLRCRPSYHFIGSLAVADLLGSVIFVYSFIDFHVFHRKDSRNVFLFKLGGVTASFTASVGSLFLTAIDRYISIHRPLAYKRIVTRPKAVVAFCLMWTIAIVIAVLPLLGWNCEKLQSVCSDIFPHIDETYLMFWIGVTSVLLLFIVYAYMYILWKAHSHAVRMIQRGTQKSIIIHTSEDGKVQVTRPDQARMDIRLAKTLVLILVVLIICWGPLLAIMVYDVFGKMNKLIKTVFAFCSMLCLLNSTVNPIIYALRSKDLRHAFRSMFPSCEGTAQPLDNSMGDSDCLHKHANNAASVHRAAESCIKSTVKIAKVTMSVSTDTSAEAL
Mu-type opioid receptor, sequence (P35372 whole entry): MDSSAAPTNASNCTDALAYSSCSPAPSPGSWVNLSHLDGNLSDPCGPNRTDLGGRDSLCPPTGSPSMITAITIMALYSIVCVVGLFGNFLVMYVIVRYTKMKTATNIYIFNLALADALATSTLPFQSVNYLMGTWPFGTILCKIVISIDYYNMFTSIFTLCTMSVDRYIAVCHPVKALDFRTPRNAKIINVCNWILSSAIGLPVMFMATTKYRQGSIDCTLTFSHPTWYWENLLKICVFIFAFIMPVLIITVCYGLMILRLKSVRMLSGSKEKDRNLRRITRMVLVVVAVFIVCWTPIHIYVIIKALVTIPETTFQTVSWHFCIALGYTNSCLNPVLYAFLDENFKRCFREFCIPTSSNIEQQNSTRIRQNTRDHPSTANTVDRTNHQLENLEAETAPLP
5-hydroxytryptamine receptor 2A, sequence (P28223 whole entry): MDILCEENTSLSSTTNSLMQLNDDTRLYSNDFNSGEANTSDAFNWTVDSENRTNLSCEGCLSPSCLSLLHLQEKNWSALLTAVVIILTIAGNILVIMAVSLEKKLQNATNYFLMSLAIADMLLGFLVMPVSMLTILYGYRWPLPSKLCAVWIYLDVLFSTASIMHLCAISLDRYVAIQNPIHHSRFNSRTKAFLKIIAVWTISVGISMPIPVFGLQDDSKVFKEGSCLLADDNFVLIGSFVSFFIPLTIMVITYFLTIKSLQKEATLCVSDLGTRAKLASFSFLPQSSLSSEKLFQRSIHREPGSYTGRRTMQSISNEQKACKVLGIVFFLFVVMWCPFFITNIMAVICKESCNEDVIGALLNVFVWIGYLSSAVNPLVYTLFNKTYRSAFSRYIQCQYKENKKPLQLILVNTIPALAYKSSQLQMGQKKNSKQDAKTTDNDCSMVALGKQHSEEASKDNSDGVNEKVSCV
Voltage-dependent N-type calcium channel subunit alpha-1B, sequence (Q02294 whole entry): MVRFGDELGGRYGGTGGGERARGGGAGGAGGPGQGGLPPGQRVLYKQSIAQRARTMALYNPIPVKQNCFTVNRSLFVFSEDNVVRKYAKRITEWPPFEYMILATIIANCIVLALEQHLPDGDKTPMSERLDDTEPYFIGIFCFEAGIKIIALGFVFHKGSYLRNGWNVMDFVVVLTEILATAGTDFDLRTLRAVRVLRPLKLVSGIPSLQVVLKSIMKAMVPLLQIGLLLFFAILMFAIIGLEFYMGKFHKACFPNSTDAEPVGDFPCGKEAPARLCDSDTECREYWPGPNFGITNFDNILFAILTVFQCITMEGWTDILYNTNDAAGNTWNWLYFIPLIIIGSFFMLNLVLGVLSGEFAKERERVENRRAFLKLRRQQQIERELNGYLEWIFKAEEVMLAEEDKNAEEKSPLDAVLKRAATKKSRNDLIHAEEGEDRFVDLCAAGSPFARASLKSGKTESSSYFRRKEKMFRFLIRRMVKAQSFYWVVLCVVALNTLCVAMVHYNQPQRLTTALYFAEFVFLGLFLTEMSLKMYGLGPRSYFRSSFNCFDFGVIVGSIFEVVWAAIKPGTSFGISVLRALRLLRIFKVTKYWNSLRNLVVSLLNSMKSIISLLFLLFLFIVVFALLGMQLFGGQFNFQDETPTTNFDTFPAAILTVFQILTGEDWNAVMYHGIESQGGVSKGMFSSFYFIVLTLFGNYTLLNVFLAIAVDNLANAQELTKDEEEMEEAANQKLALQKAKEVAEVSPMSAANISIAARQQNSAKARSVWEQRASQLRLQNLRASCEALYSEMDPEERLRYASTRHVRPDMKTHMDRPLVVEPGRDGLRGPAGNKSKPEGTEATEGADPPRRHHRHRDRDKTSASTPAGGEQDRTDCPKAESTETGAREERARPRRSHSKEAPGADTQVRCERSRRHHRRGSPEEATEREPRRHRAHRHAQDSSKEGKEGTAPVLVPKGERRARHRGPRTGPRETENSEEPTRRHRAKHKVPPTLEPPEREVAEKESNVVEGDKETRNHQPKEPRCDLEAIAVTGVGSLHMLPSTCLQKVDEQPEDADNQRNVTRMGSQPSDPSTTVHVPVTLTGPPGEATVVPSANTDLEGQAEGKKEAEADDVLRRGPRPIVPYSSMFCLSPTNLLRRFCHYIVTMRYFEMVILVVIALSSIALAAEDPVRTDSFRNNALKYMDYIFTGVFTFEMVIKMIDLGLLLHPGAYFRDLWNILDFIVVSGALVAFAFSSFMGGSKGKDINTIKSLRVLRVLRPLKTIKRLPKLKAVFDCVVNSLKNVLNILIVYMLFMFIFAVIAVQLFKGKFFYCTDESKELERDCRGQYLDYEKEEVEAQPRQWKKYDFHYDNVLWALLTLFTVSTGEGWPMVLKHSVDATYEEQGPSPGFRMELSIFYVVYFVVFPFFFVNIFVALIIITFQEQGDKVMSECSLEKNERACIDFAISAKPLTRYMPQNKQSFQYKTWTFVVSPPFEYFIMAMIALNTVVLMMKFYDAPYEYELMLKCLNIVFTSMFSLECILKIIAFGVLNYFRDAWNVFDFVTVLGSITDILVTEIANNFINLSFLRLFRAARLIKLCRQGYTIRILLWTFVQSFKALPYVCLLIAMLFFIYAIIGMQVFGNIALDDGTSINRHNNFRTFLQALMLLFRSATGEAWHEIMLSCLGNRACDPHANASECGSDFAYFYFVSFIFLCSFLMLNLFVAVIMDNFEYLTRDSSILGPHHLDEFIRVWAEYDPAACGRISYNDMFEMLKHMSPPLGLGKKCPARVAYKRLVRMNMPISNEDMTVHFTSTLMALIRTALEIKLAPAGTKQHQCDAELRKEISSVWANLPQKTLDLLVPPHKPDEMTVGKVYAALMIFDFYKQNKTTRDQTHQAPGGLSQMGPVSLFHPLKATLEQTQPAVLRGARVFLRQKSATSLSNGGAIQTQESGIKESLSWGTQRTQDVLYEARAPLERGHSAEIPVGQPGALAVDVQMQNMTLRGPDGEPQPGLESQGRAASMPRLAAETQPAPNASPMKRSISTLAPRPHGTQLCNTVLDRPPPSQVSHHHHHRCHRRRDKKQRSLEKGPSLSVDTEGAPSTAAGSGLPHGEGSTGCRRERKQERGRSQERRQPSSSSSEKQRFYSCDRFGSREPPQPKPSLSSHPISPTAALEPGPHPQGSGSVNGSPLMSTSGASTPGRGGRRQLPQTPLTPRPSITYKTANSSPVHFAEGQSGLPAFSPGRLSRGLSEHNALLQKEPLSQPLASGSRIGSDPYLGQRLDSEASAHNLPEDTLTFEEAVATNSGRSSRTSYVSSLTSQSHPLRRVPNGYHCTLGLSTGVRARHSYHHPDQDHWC

With `COC(=O)[C@H]1[C@H]2C[C@@H]3c4[nH]c5ccccc5c4CCN3C[C@H]2C[C@@H](OC(=O)c2cc(OC)c(OC)c(OC)c2)[C@@H]1OC` [DESERPIDINE], the AC50 (in assay [1]; at Cannabinoid receptor 1) was more than 10 µM in each case.

Consider `CCN1C(=O)NC(c2ccccc2)C1=O` (configuration not stated) [ETHOTOIN], for which the AC50 (in assay [1]; in assay [2]; on Mu-type opioid receptor) was more than 30 µM throughout.

Take `CCC1(C)CC(=O)NC1=O` (configuration not stated) [ETHOSUXIMIDE]: the results for the AC50 on Mu-type opioid receptor and at Cannabinoid receptor 1 were more than 30 µM and more than 10 µM, respectively.

`CC(=O)[C@@]1(O)CC[C@H]2[C@@H]3C[C@H](C)C4=CC(=O)C=C[C@]4(C)[C@@]3(F)[C@@H](O)C[C@@]21C` [FLUOROMETHOLONE]: on Cannabinoid receptor 1, the AC50 is more than 10 µM.

For `CS(=O)(=O)NC(=O)CCC/C=C\C[C@H]1C(=O)C[C@@H](O)[C@@H]1/C=C/[C@@H](O)COc1ccccc1` [SULPROSTONE], the AC50 (in assay [1]; in assay [2]; on Mu-type opioid receptor) was more than 30 µM throughout.

Consider `CCN(CC)CCCN(c1ccccc1)C1Cc2ccccc2C1` [APRINDINE], for which the AC50 in assay [1] was 2.89 µM; in assay [2] it was more than 30 µM; on Mu-type opioid receptor it was more than 30 µM; on Cannabinoid receptor 1 it was more than 10 µM.

Regarding `CC1=C(/C=C/C(C)=C/C=C/C(C)=C/C(=O)Oc2c(C)c(C)c3c(c2C)CCC(C)(CCCC(C)CCCC(C)CCCC(C)C)O3)C(C)(C)CCC1` (configuration not stated) [TRETINOIN TOCOFERIL], the AC50 (in assay [1]; on Mu-type opioid receptor) was more than 30 µM throughout.

Consider `CCN(CC)Cc1nccn1-c1ccc([N+](=O)[O-])cc1C(=O)c1ccccc1Cl` [NIZOFENONE], for which the AC50 (in assay [1]; at Mu-type opioid receptor) was more than 30 µM each time.

On to `Cc1cccc(Nc2ccncc2S(=O)(=O)NC(=O)NC(C)C)c1` [TORSEMIDE], for which the figures for the AC50 at Mu-type opioid receptor and at Cannabinoid receptor 1 were more than 30 µM and more than 10 µM, respectively.

On Cannabinoid receptor 1, `CC1CC(OC(=O)C(O)c2ccccc2)CC(C)(C)C1` (configuration not stated) [CYCLANDELATE] registered an AC50 of more than 10 µM.

On to `CCCCOC(=O)c1ccc(N)cc1` [BUTAMBEN], for which the half-maximal activity concentration (AC50) on Mu-type opioid receptor was more than 30 µM.

With `CCC1(CC)C(=O)NC(=O)N(C)C1=O` [METHARBITAL], the AC50 (in assay [1]; on Cannabinoid receptor 1) was more than 10 µM in each case.

Regarding `CC(=O)OCC1=C(C(=O)O)N2C(=O)[C@@H](NC(=O)CSc3ccncc3)[C@H]2SC1` [CEPHAPIRIN], the figures for the AC50 (in assay [1]; at Mu-type opioid receptor; on Cannabinoid receptor 1) were more than 10 µM, more than 30 µM and more than 10 µM, respectively.

Regarding `CC(C)(C)NCC(O)COc1cccc2c1CC(O)C(O)C2` (configuration not stated) [NADOLOL], the AC50 on Cannabinoid receptor 1 is more than 10 µM.

Turning to `CC(=O)N1CCN(c2ccc(OCC3COC(Cn4ccnc4)(c4ccc(Cl)cc4Cl)O3)cc2)CC1` (configuration not stated) [KETOCONAZOLE], the AC50 at Cannabinoid receptor 1 was more than 10 µM.

As to `O=C(C[S+]([O-])Cc1ccco1)NC/C=C\COc1cc(CN2CCCCC2)ccn1` (configuration not stated) [LAFUTIDINE], the concentration at half-maximal activity (AC50) in assay [1] is more than 30 µM; on Cannabinoid receptor 1, more than 10 µM.

Turning to `COc1ccc(C(Cl)=C(c2ccc(OC)cc2)c2ccc(OC)cc2)cc1` [CHLOROTRIANISENE], the AC50 in assay [1] was more than 30 µM; in assay [2], more than 30 µM; at Mu-type opioid receptor, more than 30 µM; at Cannabinoid receptor 1 it was more than 10 µM.

With `CNCCc1ccccn1` [BETAHISTINE], at Mu-type opioid receptor, the AC50 was more than 30 µM.

With `Nc1nc(Cl)nc2c1ncn2[C@@H]1O[C@H](CO)[C@@H](O)[C@@H]1F` [CLOFARABINE], the AC50 (in assay [1]; at Mu-type opioid receptor; on Cannabinoid receptor 1) was more than 30 µM in each case.

Regarding `CCc1ccc(C(=O)C(C)CN2CCCCC2)cc1` (configuration not stated) [EPERISONE], the AC50 at Mu-type opioid receptor and at Cannabinoid receptor 1 was more than 30 µM in each case.

As to `CC(=O)OCC1=C(C(=O)O)N2C(=O)[C@@H](NC(=O)Cc3cccs3)[C@H]2SC1` [CEPHALOTHIN], the AC50 (in assay [1]; in assay [2]; on Mu-type opioid receptor) was more than 30 µM each time.

For the molecule `CN1CCCN=C1/C=C/c1cccc(O)c1` [OXANTEL], the AC50 (in assay [1]; in assay [2]; on Mu-type opioid receptor) was more than 30 µM in each case.

Regarding `O=C(O)CCCC[C@@H]1SC[C@@H]2NC(=O)N[C@@H]21` [BIOTIN], the AC50 on Cannabinoid receptor 1 is more than 10 µM.

`COc1nc(C)nc(Cl)c1N=C1NCCN1` [MOXONIDINE]: the AC50 (in assay [2]; on Mu-type opioid receptor) was more than 30 µM in each case.

Take `COC(=O)c1ccc2c(c1)NC(=O)/C2=C(\Nc1ccc(N(C)C(=O)CN2CCN(C)CC2)cc1)c1ccccc1` [NINTEDANIB]: the concentration at half-maximal activity (AC50) (in assay [1]; in assay [2]; on Mu-type opioid receptor) was more than 30 µM throughout.

Consider `N=C(N)NC(=O)Cc1c(Cl)cccc1Cl` [GUANFACINE], for which the AC50 on Mu-type opioid receptor was more than 30 µM; at Cannabinoid receptor 1, more than 10 µM.

For the molecule `CO/N=C(\C(=O)N[C@@H]1C(=O)N2C(C(=O)O)=C(CSc3nc(C)c(CC(=O)O)s3)CS[C@H]12)c1csc(N)n1` [CEFODIZIME], the AC50 (in assay [1]; on Mu-type opioid receptor) was more than 30 µM throughout.

In the case of `CN(Cc1ccc(C(C)(C)C)cc1)Cc1cccc2ccccc12` [BUTENAFINE], the AC50 on Cannabinoid receptor 1 is more than 10 µM.

Consider `CCCCCCOC(=O)NC(=N)c1ccc(NCc2nc3cc(C(=O)N(CCC(=O)OCC)c4ccccn4)ccc3n2C)cc1` [DABIGATRAN ETEXILATE], for which the AC50 in assay [1] and in assay [2] was more than 30 µM in each case.

`Nc1ccc(S(=O)(=O)Nc2ncccn2)cc1` [SULFADIAZINE]: the AC50 at Cannabinoid receptor 1 is more than 10 µM.

For the molecule `CC1=C(C(=O)O)N2C(=O)[C@@H](NC(=O)[C@H](N)C3=CCC=CC3)[C@H]2SC1` [CEPHRADINE], the AC50 (in assay [1]; in assay [2]; on Mu-type opioid receptor) was more than 30 µM throughout.

In the case of `CCC(NC(C)C)C(O)c1ccc(O)c(O)c1` (configuration not stated) [ISOETHARINE], the AC50 (in assay [1]; at Mu-type opioid receptor; at Cannabinoid receptor 1) was more than 30 µM in each case.

For the molecule SITOSTEROLS, the AC50 (in assay [1]; on Mu-type opioid receptor) was more than 30 µM each time.

With `CO/N=C(\C(=O)N[C@@H]1C(=O)N2C(C(=O)[O-])=C(C[n+]3ccc(N)n3CCO)CS[C@H]12)c1csc(N)n1` [CEFOSELIS], the AC50 (in assay [1]; on Mu-type opioid receptor) was more than 30 µM in each case.

Regarding `COc1cc(N)cn[n+]1-c1ccccc1` [AMEZINIUM METILSULFATE], the AC50 (in assay [1]; on Mu-type opioid receptor) was more than 30 µM throughout.

As for `CC1Cc2ccccc2N1NC(=O)c1ccc(Cl)c(S(N)(=O)=O)c1` (configuration not stated) [INDAPAMIDE], the AC50 in assay [3] was more than 10 µM; in assay [2], more than 30 µM; at Cannabinoid receptor 1, more than 10 µM.
